Source: patent US10119966B2, “Method of detecting auto-antibodies from patients suffering from rheumatoid arthritis, a peptide and assay kit” (STICHTING VOOR DE TECHNISCHE WETENSCHAPPEN, priority 2001, dated 2018)
Non-standard residues stand in square brackets, D forms with d. No end group written: not given here. Cit = NC(=O)NCCC[C@H](N)C(=O)O

Columns and labels:
Assay type in all cases: binding, human
[1] = test system: autoantibodies from patients suffering from rheumatoid arthritis (RA sera); experiment: ELISA of coated peptides with sera from RA patients; conditions: for Sensitivity [%] cyclic / Sensitivity [%] Linear: 318 RA sera; for Sensitivity [%] Linear: linear variant; for assessment of cyclic variants (in words): cysteine-bromoacetic acid cyclisation
Method: The most interesting peptides were synthesised in a slightly larger quantity to form a linear and a cyclic variant, and in most cases in a citrulline and arginine (=control) variant. These peptides were tested for reactivity with a series of sera from RA patients. The peptides were coated to ELISA plates and incubated with sera from RA patients. Each serum was tested in duplicate. Sera from healthy persons were used as negative control. […]
(§1) Using the above-described methods, seven XG peptide units were tested for reactivity with the 318 sera mentioned in Table 2 from patients suffering from rheumatoid arthritis. The specificity was determined with the aid of sera mentioned in Table 2 from control patients and normal donors.
(§2) In accordance with the methods described in this document, five XnonG peptide units were tested for reactivity with the same 318 sera mentioned in Table 2 from patients suffering from rheumatoid arthritis. Specificity was again determined with the aid of the sera mentioned in Table 2 from control patients and normal donors.

[2] = test system: sera from control patients and normal donors; experiment: ELISA with sera from patients with other diseases and normal sera (specificity); conditions: for % positive sera: cyclic peptide; for Specificity [%] cyclic: cyclic variant; for Specificity [%] cyclic / Specificity [%] linear: control patients and normal donors of Table 2; for Specificity [%] linear: linear variant
Method: (§3) The most interesting peptides were synthesised in a slightly larger quantity to form a linear and a cyclic variant, and in most cases in a citrulline and arginine (=control) variant. These peptides were tested for reactivity with a series of sera from RA patients. The peptides were coated to ELISA plates and incubated with sera from RA patients. Each serum was tested in duplicate. Sera from healthy persons were used as negative control.
The above table represents ELISAs with sera obtained from patients suffering from RA and from patients suffering from various other autoimmune diseases. […] The arginine variant of peptide 0002-36 (R on position 0 and +2, i.e., instead of Cit in the formula) was also tested and shown to be negative with all tested RA and normal sera.
as §1, §2

[3] = test system: XG-negative sera (RA sera comprising no XG reactive antibodies); experiment: ELISA of XnonG peptides with RA sera that do not react with XG peptides; conditions: for Sensitivity [%] cyclic: cyclic variant; for Sensitivity [%] cyclic / Sensitivity [%] Linear: 80 of the 318 RA sera that did not react with any XG peptide of Table 6; for Sensitivity [%] Linear: linear variant
Method: as §3
The percentages mentioned in table 8 therefore show the percentage of the sera that did comprise antibodies to XnonG peptide units but comprised no XG reactive antibodies.

[4] = ELISA with 186 RA sera, cyclic variants
[5] = XnonG peptide units, cyclic variant
[6] = XG peptide units, cyclic variant
[7] = two cohorts of RA sera, in total 318 sera

0002-36 (cyclic): cyclic variant of peptide 0002-36, cyclisized by the cysteine-bromoacetic acid method (HQFRF[Cit]G[Cit]SRAA; thioether (positions not given here); not fully specified (bridges); printed as H Q F R F Cit G Cit S R A A; also: cyclised by cysteine-bromoacetic acid method, no Cys in given chain, ring places not given here)
positive sera ([1]; ELISA with 132 RA sera): 71%
positive sera (number/total) ([1]; ELISA with 132 RA sera): 94/132
positive sera [1, 4]: 71%
% positive sera ([1]; RA sera, N=318, cyclic peptide): 71%
% positive sera ([2]; Colitis ulcerosa sera, N=40): 0%
% positive sera ([2]; Crohn's disease sera, N=40): 0%
% positive sera ([2]; Infectious diseases (malaria, chlamydia, mycoplasma, etc.) sera, N=250): 1%
% positive sera ([2]; Normal human serum, N=84): 0%
% positive sera ([2]; Osteoarthritis sera, N=29): 0%
% positive sera ([2]; PM, Polymyositis sera, N=11): 0%
% positive sera ([2]; Prim Sjögren's syndrome sera, N=34): 3%
% positive sera ([2]; Psoriasis sera, N=10): 0%
% positive sera ([2]; SSc Scleroderma sera, N=10): 0%
% positive sera ([2]; Systemic Lupus Erythematodes sera, N=24): 0%
% positive sera ([2]; Vasculitis sera, N=30): 0%

0002-63 (cyclic): cyclic variant of peptide 0002-63 (HQFRF[Cit]GWSRAA; thioether (positions not given here); also: cyclised by cysteine-bromoacetyl thioether, Cys and bromoacetyl not shown in chain)
positive sera [1, 4]: 71%

A R F Q M Cit H Cit R L I R (ARFQM[Cit]H[Cit]RLIR) [0107-35]
Sensitivity [%] cyclic [1, 5]: 61%
Sensitivity [%] Linear ([1]; XnonG peptide units): 52%
reacts with % of the sera that are not reactive with cyclic 0002-36 ([3]; cyclic form): 18%
Sensitivity [%] cyclic [3]: 18%
Sensitivity [%] Linear [3]: 17%
Specificity [%] cyclic ([2]; XnonG peptide units): 99%
Specificity [%] linear ([2]; XnonG peptide units): 98%

A R F Q M R H Cit R L I R (ARFQMRH[Cit]RLIR) [0113-30]
Sensitivity [%] cyclic [1, 5]: 71%
Sensitivity [%] Linear ([1]; XnonG peptide units): 49%
Sensitivity [%] cyclic [3]: 19%
Sensitivity [%] Linear [3]: 18%
Specificity [%] cyclic ([2]; XnonG peptide units): 100%
Specificity [%] linear ([2]; XnonG peptide units): 99%

G V Y L V R Cit L Cit M M R [0218-36]
Sensitivity [%] cyclic [1, 5]: 70%
Sensitivity [%] Linear ([1]; XnonG peptide units): 50%
Sensitivity [%] cyclic [3]: 17%
Sensitivity [%] Linear [3]: 17%
Specificity [%] cyclic ([2]; XnonG peptide units): 98%
Specificity [%] linear ([2]; XnonG peptide units): 98%

GFFSA[Cit]GHRPLD [0101-7]
reacted with % of RA sera ([1]; cyclic variant, 186 RA-sera): 45%
reacted with % of the sera ([1]; linear peptide): 55%

H Q F R F Cit G Cit S R A A (HQFRF[Cit]G[Cit]SRAA) [0002-36 (linear)]
positive sera ([1]; ELISA with 132 RA sera): 61%
positive sera (number/total) ([1]; ELISA with 132 RA sera): 80/132

H Q F R F Cit G Cit S R A A (HQFRF[Cit]G[Cit]SRAA) [0002-36]
reactivity with RA sera (in words) [1]: very satisfactory
Sensitivity [%] cyclic [1, 6]: 71%
Sensitivity [%] Linear ([1]; XG peptide units): 61%
assessment of cyclic variants (in words) ([1]; cyclic variants): of interest
OD-values, cyclic versus linear variant [1, 7]: much higher
frequency of reaction, cyclic versus linear variant [1, 7]: react more frequently (and better) than the linear variant
Specificity [%] cyclic ([2]; XG peptide units): 99%
Specificity [%] linear ([2]; XG peptide units): 99%

H Q K R G Cit G W S R A A (HQKRG[Cit]GWSRAA) [0002-27]
Sensitivity [%] cyclic [1, 6]: 71%
Sensitivity [%] Linear ([1]; XG peptide units): 56%
assessment of cyclic variants (in words) ([1]; cyclic variants): of interest
Specificity [%] cyclic ([2]; XG peptide units): 98%
Specificity [%] linear ([2]; XG peptide units): 98%

H Q K W R Cit G R S Cit A A (HQKWR[Cit]GRS[Cit]AA) [0002-37]
Sensitivity [%] cyclic [1, 6]: 70%
Sensitivity [%] Linear ([1]; XG peptide units): 60%
Specificity [%] cyclic ([2]; XG peptide units): 98%
Specificity [%] linear ([2]; XG peptide units): 98%

H Q R R T Cit G G S R A A (HQRRT[Cit]GGSRAA) [0002-31]
Sensitivity [%] cyclic [1, 6]: 69%
Sensitivity [%] Linear ([1]; XG peptide units): 51%
assessment of cyclic variants (in words) ([1]; cyclic variants): of interest
Specificity [%] cyclic ([2]; XG peptide units): 98%
Specificity [%] linear ([2]; XG peptide units): 98%

H Q R R V Cit G W S R A A (HQRRV[Cit]GWSRAA) [0002-29]
Sensitivity [%] cyclic [1, 6]: 70%
Sensitivity [%] Linear ([1]; XG peptide units): 57%
assessment of cyclic variants (in words) ([1]; cyclic variants): of interest
Specificity [%] cyclic ([2]; XG peptide units): 98%
Specificity [%] linear ([2]; XG peptide units): 98%

HQFRF[Cit]GWSRAA [0002-63]
reactivity with RA sera (in words) [1]: very satisfactory
Sensitivity [%] cyclic [1, 6]: 71%
Sensitivity [%] Linear ([1]; XG peptide units): 60%
assessment of cyclic variants (in words) ([1]; cyclic variants): of interest
Specificity [%] cyclic ([2]; XG peptide units): 98%
Specificity [%] linear ([2]; XG peptide units): 98%

HQRKW[Cit]GASRAA [0002-32]
Sensitivity [%] cyclic [1, 6]: 71%
Sensitivity [%] Linear ([1]; XG peptide units): 61%
Specificity [%] cyclic ([2]; XG peptide units): 98%
Specificity [%] linear ([2]; XG peptide units): 98%

HQWNR[Cit]GWSRAA [0002-35]
reactivity with RA sera (in words) [1]: very satisfactory

K P Y T V Cit K F M R R P (KPYTV[Cit]KFMRRP) [0107-32]
Sensitivity [%] cyclic [1, 5]: 63%
Sensitivity [%] Linear ([1]; XnonG peptide units): 48%
further % added ([3]; cyclic peptide, added to cyclic 0107-35): 8%
Sensitivity [%] cyclic [3]: 18%
Sensitivity [%] Linear [3]: 15%
Specificity [%] cyclic ([2]; XnonG peptide units): 98%
Specificity [%] linear ([2]; XnonG peptide units): 98%

Y S F V W Cit S H A R P R (YSFVW[Cit]SHARPR) [0107-45]
Sensitivity [%] cyclic [1, 5]: 69%
Sensitivity [%] Linear ([1]; XnonG peptide units): 51%
Sensitivity [%] cyclic [3]: 18%
Sensitivity [%] Linear [3]: 16%
Specificity [%] cyclic ([2]; XnonG peptide units): 99%
Specificity [%] linear ([2]; XnonG peptide units): 98%

arginine variant of peptide 0002-36: R on position 0 and +2, i.e., instead of Cit in the formula; control variant (HQFRFRGRSRAA) [reference compound]
reactivity with RA sera ([1]; all tested RA sera): negative
reactivity with normal sera ([2]; all tested normal sera): negative
